Measurements: patent publication US11267824B2, “Inhibitors of indoleamine 2,3-dioxygenase and/or tryptophan 2,3-dioxygenase” (IDORSIA PHARMACEUTICALS LTD, priority 2017, dated 2022)

Columns and labels:
[1] = target: Recombinant full-length human IDO1 (Homo sapiens (Human), UniProt P14902); assay: IDO1 enzymatic assay (IDO inhibitory activity); assay type: biochemical; conditions: 2 nM enzyme, 5 μM L-tryptophan, pH6.5, 30 min pre-incubation, NFK quantified by LCMS; mean values if measured multiple times; read-out: hIDO activity (IC50 in nM)
Chain of Recombinant full-length human IDO1 (P14902 whole entry): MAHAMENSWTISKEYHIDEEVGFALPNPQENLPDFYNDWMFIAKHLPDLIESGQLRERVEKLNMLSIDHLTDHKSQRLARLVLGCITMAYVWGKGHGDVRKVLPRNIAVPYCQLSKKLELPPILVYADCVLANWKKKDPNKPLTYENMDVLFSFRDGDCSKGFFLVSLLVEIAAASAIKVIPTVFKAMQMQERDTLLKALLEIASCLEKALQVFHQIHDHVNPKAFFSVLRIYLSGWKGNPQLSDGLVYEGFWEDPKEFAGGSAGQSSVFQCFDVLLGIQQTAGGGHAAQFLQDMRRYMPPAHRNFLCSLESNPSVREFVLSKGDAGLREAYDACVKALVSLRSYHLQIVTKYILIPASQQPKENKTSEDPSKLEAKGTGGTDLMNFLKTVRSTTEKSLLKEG
Summary of the method: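 N-His-tagged enzyme from E. coli at 2 nM in 37.5 mM phosphate pH6.5 with ascorbate, methylene blue, catalase; compounds 10 μM–0.5 nM, 0.6% DMSO, pre-incubated 30 min RT, then 5 μM L-tryptophan for 30 min RT. NFK quantified by LCMS against d5-tryptophan; IC50 from duplicate four-parameter fit, means where repeated.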

[2] = target: Recombinant human TDO comprising amino acids 19-407 (Homo sapiens (Human), UniProt P48775); assay: TDO2 enzymatic assay (TDO inhibitory activity); assay type: biochemical; conditions: 15 nM enzyme, 200 μM L-tryptophan, pH7, 30 min pre-incubation, NFK quantified by LCMS; mean values if measured multiple times; read-out: hTDO activity (IC50 in nM)
Chain of Recombinant human TDO comprising amino acids 19-407 (P48775 19-406 limits assumed): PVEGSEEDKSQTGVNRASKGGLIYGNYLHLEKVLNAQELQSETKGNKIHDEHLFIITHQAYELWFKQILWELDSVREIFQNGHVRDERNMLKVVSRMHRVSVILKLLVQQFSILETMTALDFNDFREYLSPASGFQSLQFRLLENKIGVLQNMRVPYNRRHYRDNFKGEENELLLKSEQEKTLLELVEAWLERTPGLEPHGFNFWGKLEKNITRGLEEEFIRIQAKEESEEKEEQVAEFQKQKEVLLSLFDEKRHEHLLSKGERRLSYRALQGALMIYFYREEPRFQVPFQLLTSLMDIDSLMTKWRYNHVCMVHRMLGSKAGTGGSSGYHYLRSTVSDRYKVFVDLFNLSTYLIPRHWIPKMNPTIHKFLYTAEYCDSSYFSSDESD
Summary of the method: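 His-tagged enzyme (15 nM, E. coli-expressed) in pH 7 phosphate buffer with ascorbate, catalase, BSA, Tween 20, 0.6% DMSO; 30 min RT pre-incubation with compound (10 μM–0.5 nM), then 200 μM L-tryptophan for 30 min RT. N′-formylkynurenine quantified by LCMS against deuterated tryptophan; IC50 by four-parameter fit, duplicates.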

SMILES	IC50 [1] [nM]	IC50 [2] [nM]
CC1(C)CCC(CC(O)c2c(C3CC3)sc3cncn23)C1 (stereo not shown) [Example 34, 1-(2-Cyclopropyl-imidazo[5,1-b]thiazol-3-yl)-2-(3,3-dimethyl-cyclopentyl)-ethanol]	39.4	321
OC(c1cccs1)c1c(Cl)sc2cncn12 (racemic) [Example 15, rac-(2-Chloro-imidazo[5,1-b]thiazol-3-yl)-thiophen-2-yl-methanol]	333	690
OC(c1c(Cl)sc2cncn12)C1CC1 (racemic) [Example 19, rac-(2-Chloro-imidazo[5,1-b]thiazol-3-yl)-cyclopropyl-methanol]	1040	2660
CC1(CC(O)c2c(C3CC3)sc3cncn23)CCCCC1 (racemic) [Example 23, rac-1-(2-Cyclopropyl-imidazo[5,1-b]thiazol-3-yl)-2-(1-methyl-cyclohexyl)-ethanol]	40.5	204
OC(c1c(Cl)sc2cncn12)C1CCCCCC1 (racemic) [Example 17, rac-(2-Chloro-imidazo[5,1-b]thiazol-3-yl)-cycloheptyl-methanol]	170	301
O[C@H](c1c(-c2ccccc2)sc2cncn12)C1CCCCC1 [Example 92a, (S)-Cyclohexyl-(2-phenyl-imidazo[5,1-b]thiazol-3-yl)-methanol]	242	171
OC(CC1CCC(F)(F)CC1)c1c(C2CC2)sc2cncn12 (racemic) [Example 71, rac-1-(2-Cyclopropyl-imidazo[5,1-b]thiazol-3-yl)-2-(4,4-difluoro-cyclohexyl)-ethanol]	28.5	263
CC(C)(C)C1CCC(C(O)c2c(C3CC3)sc3cncn23)CC1 (racemic) [Example 86, rac-(4-tert-Butyl-cyclohexyl)-(2-cyclopropyl-imidazo[5,1-b]thiazol-3-yl)-methanol]	511	2780
OC(c1c(C2CC2)sc2cncn12)C1CCCC1Cc1ccccc1 (stereo not shown) [Example 91, (2-Benzyl-cyclopentyl)-(2-cyclopropyl-imidazo[5,1-b]thiazol-3-yl)-methanol]	288	1640
OC(CC1CCC(c2ccccc2)C1)c1c(C2CC2)sc2cncn12 (stereo not shown) [Example 35, 1-(2-Cyclopropyl-imidazo[5,1-b]thiazol-3-yl)-2-(3-phenyl-cyclopentyl)-ethanol]	114	1570
CCc1cccc(C(O)c2c(C3CC3)sc3cncn23)c1 (racemic) [Example 54, rac-(2-Cyclopropyl-imidazo[5,1-b]thiazol-3-yl)-(3-ethyl-phenyl)-methanol]	120	1850
CCC1CCC(C(O)c2c(C3CC3)sc3cncn23)CC1 (racemic) [Example 45, rac-(2-Cyclopropyl-imidazo[5,1-b]thiazol-3-yl)-(4-ethyl-cyclohexyl)-methanol]	35.7	583
Cc1sc2cncn2c1C(O)c1cccs1 (racemic) [Example 57, rac-(2-Methyl-imidazo[5,1-b]thiazol-3-yl)-thiophen-2-yl-methanol]	433	829
CC(C)C1CCC(CC(O)c2c(C3CC3)sc3cncn23)CC1 (racemic) [Example 85, rac-1-(2-Cyclopropyl-imidazo[5,1-b]thiazol-3-yl)-2-(4-isopropyl-cyclohexyl)-ethanol]	511	2830
Cc1sc2cncn2c1[C@@H](O)C1CCCCC1 [Example 6a, (S)-Cyclohexyl-(2-methyl-imidazo[5,1-b]thiazol-3-yl)-methanol]	37.3	60.4
Cc1sc2cncn2c1C(O)C1CCCCC1 (racemic) [Example 6, rac-Cyclohexyl-(2-methyl-imidazo[5,1-b]thiazol-3-yl)-methanol]	134	143
CC(C)(C)C1CCC(CC(O)c2c(C3CC3)sc3cncn23)CC1 (racemic) [Example 74, rac-2-(4-tert-Butyl-cyclohexyl)-1-(2-cyclopropyl-imidazo[5,1-b]thiazol-3-yl)-ethanol]	950	4330
CCC(C1CCCCC1)C(O)c1c(C2CC2)sc2cncn12 (stereo not shown) [Example 66, 2-Cyclohexyl-1-(2-cyclopropyl-imidazo[5,1-b]thiazol-3-yl)-butan-1-ol]	1570	> 10200

Second part, the molecule after the results:

IC50 [1] [nM]	IC50 [2] [nM]	SMILES
7.07	259	OC(c1c(C2CC2)sc2cncn12)C1CC2CCCC2C1 (stereo not shown) [Example 133, (2-Cyclopropyl-imidazo[5,1-b]thiazol-3-yl)-(octahydro-pentalen-2-yl)-methanol]
10.5	62.6	C=Cc1sc2cncn2c1C(O)CC1CCCCC1 (stereo not shown) [Example 97, 2-Cyclohexyl-1-(2-vinyl-imidazo[5,1-b]thiazol-3-yl)-ethanol]
9.81	912	CC1(C)CC(C(O)c2c(C(F)(F)F)sc3cncn23)C1 (racemic) [Example 110, rac-(3,3-Dimethyl-cyclobutyl)-(2-trifluoromethyl-imidazo[5,1-b]thiazol-3-yl)-methanol]
45.5	701	CC1CCC(C(O)c2c(C(F)(F)F)sc3cncn23)C1 (stereo not shown) [Example 116, (3-Methyl-cyclopentyl)-(2-trifluoromethyl-imidazo[5,1-b]thiazol-3-yl)-methanol]
10.6	104	CC1(C(O)c2c(C3CC3)sc3cncn23)CCCCC1 (racemic) [Example 105, rac-(2-Cyclopropyl-imidazo[5,1-b]thiazol-3-yl)-(1-methyl-cyclohexyl)-methanol]
3090	1990	COc1ccc(-c2sc3cncn3c2C(O)C2CCCCC2)cc1 (racemic) [Example 127, rac-Cyclohexyl-[2-(4-methoxy-phenyl)-imidazo[5,1-b]thiazol-3-yl]-methanol]
1120	3020	OC(c1ccccc1Cl)c1c(C2CC2)sc2cncn12 (racemic) [Example 164, rac-(2-Chloro-phenyl)-(2-cyclopropyl-imidazo[5,1-b]thiazol-3-yl)-methanol]
28.9	203	CCc1sc2cncn2c1C(O)CC1CCCC1 (racemic) [Example 179, rac-2-Cyclopentyl-1-(2-ethyl-imidazo[5,1-b]thiazol-3-yl)-ethanol]
313	8490	CC1(C)CCC(CC(O)c2c(C(F)(F)F)sc3cncn23)C1 (stereo not shown) [Example 121, 2-(3,3-Dimethyl-cyclopentyl)-1-(2-trifluoromethyl-imidazo[5,1-b]thiazol-3-yl)-ethanol]
587	765	OC(c1cccc(C(F)(F)F)c1)c1c(C2CC2)sc2cncn12 (racemic) [Example 143, rac-(2-Cyclopropyl-imidazo[5,1-b]thiazol-3-yl)-(3-trifluoromethyl-phenyl)-methanol]
61.2	891	OC(c1c(C2CC2)sc2cncn12)C12CCC(c3ccccc3)(C1)C2 (racemic) [Example 190, rac-(2-Cyclopropyl-imidazo[5,1-b]thiazol-3-yl)-(4-phenyl-bicyclo[2.1.1]hex-1-yl)-methanol]
287	> 10200	OC(c1cn(C2CCCCC2)nn1)c1c(C2CC2)sc2cncn12 (racemic) [Example 197, rac-(1-Cyclohexyl-1H-[1,2,3]triazol-4-yl)-(2-cyclopropyl-imidazo[5,1-b]thiazol-3-yl)-methanol]
435	583	CC(C)Cc1sc2cncn2c1C(O)C1CCCCC1 (racemic) [Example 98, rac-Cyclohexyl-(2-isobutyl-imidazo[5,1-b]thiazol-3-yl)-methanol]
116	> 10200	CCc1sc2cncn2c1C(O)c1cn(C2CCCC2)nn1 (racemic) [Example 198, rac-(1-Cyclopentyl-1H-[1,2,3]triazol-4-yl)-(2-ethyl-imidazo[5,1-b]thiazol-3-yl)-methanol]
149	206	Cc1sc2cncn2c1C(O)C1CCCC1 (racemic) [Example 113, rac-Cyclopentyl-(2-methyl-imidazo[5,1-b]thiazol-3-yl)-methanol]
49.5	153	CCCc1sc2cncn2c1C(O)C1CCCCC1 (racemic) [Example 130, rac-Cyclohexyl-(2-propyl-imidazo[5,1-b]thiazol-3-yl)-methanol]
77.3	1770	OC(c1ccsc1)c1c(C2CC2)sc2cncn12 (racemic) [Example 173, rac-(2-Cyclopropyl-imidazo[5,1-b]thiazol-3-yl)-thiophen-3-yl-methanol]
4.97	28.7	CCc1sc2cncn2c1C(O)C1(C)CCCC1 (racemic) [Example 172, rac-(2-Ethyl-imidazo[5,1-b]thiazol-3-yl)-(1-methyl-cyclopentyl)-methanol]
165	2680	CC1CCCCC1CC(O)c1c(C(F)(F)F)sc2cncn12 (stereo not shown) [Example 117, 2-(2-Methyl-cyclohexyl)-1-(2-trifluoromethyl-imidazo[5,1-b]thiazol-3-yl)-ethanol]
199	1950	Cc1sc2cncn2c1C(O)CC1CCC(C)(C)CC1 (racemic) [Example 177, rac-2-(4,4-Dimethyl-cyclohexyl)-1-(2-methyl-imidazo[5,1-b]thiazol-3-yl)-ethanol]
